Values of other authors as cited in patent US20070123520A1 (priority 2005, published 2007).

Assays:
sheep = conditions: in vivo
[1] = in vivo
[2] = in vivo; remark: listed apart in the source
methemoglobinemia = conditions: in vivo, iv, 1 mg/kg
[3] = in vivo; remark: listed apart in the source
[4] = in vivo; remark: listed apart in the source

SMILES: NC12CC3CC(CC(C3)C1)C2 [amantadine]
- activity against influenza A viruses (influenza A viruses): activity

SMILES: CN(C)c1ccc2nc3ccc(N(C)C)cc3[s+]c2c1.[Cl-] [methylene blue, 3,7-Bis(dimethylamino)-phenothiazin-5-ium chloride]
- methemoglobin production (sheep): minimal
- hematologic changes (sheep; 30 mg/kg): no hematologic changes
- crossing of the blood-milk barrier [1]: crosses the blood-milk barrier easily
- Side effects [2]: blue urine, occasional nausea, anemia and fever
- side effects [2]: minimal side effects
- treatment of methemoglobinemia (methemoglobinemia): effective
- absorption from the GI tract [3]: absorbed well
- Oral absorption (range) ([3]; po): 53-97%
- overall elimination rate constant [4]: 0.0076 ± 0.0016 min⁻¹

SMILES: CCOC(=O)C1=C[C@@H](OC(CC)CC)[C@H](NC(C)=O)[C@@H](N)C1 [oseltamivir]
- activity against influenza A viruses (influenza A viruses): activity

SMILES: CC(N)C12CC3CC(CC(C3)C1)C2 (stereo not shown) [rimantadine]
- activity against influenza A viruses (influenza A viruses): activity

SMILES: CC(=O)N[C@H]1[C@H]([C@H](O)[C@H](O)CO)OC(C(=O)O)=C[C@@H]1N=C(N)N [zanamivir]
- activity against influenza A viruses (influenza A viruses): activity
